Laboratory results from patent US10456467B2, “Nanoparticle delivery system for targeted anti-obesity treatment” (UNIVERSITY OF WYOMING, priority 2014, dated 2019).

Assays:
[1] = CAP release (dissolution) in pH 7.4 phosphate buffer, Vankel dissolution apparatus; type: physicochemical; settings: 37° C.
Source text: The cumulative release (%) was plotted against time. Cumulative % Release=C1V1×CF/100×C2
C1=Concentration of capsaicin in the final solution (g/ml);
C2=Drug content (mgs) used for dissolution study;
CF=Correction Factor, which is an accommodation for the change in volume due to sampling; and
V1=Volume of dissolution medium (ml)

[2] = molecular target: T1, TRPV1 channel protein (CAP receptor) (Homo sapiens, UniProt Q8NER1); assay: Fura-2 Ca2+ influx imaging in HEK293 cells expressing TRPV1; type: cell-based; settings: 1 μM CAP or equivalent, 22 degrees Celsius, FIG. 4
T1 construct: expressed in transfected cells; host or cells: HEK293
Method: FIG. 4 is a graph 400 of the time to peak rise of Ca^2+ for PLGA coated CMN, pure CAP and MNPs containing no CAP, according to embodiments described herein. HEK293 cells expressing TRPV1 channel protein (CAP receptor) grown on coverslips were loaded with Fura-2 AM (2 μM) for 40 minutes at room temperature. Cells were washed and then viewed with a Leica DMI3000 B inverted microscope coupled to a Polychrome V digital imaging system with Imago CCD camera. Cells were continuously superfused (22 degrees Celsius) with 2 mM Ca^2+ containing normal extracellular solution (NES). The Ca^2+ influx due to the addition of pure capsaicin (1 μM), CMN or PCMN (equivalent of 1 μM CAP), was observed and measured as a function of fluorescence.

[3] = cited from earlier work

T1 sequence (Q8NER1 whole entry): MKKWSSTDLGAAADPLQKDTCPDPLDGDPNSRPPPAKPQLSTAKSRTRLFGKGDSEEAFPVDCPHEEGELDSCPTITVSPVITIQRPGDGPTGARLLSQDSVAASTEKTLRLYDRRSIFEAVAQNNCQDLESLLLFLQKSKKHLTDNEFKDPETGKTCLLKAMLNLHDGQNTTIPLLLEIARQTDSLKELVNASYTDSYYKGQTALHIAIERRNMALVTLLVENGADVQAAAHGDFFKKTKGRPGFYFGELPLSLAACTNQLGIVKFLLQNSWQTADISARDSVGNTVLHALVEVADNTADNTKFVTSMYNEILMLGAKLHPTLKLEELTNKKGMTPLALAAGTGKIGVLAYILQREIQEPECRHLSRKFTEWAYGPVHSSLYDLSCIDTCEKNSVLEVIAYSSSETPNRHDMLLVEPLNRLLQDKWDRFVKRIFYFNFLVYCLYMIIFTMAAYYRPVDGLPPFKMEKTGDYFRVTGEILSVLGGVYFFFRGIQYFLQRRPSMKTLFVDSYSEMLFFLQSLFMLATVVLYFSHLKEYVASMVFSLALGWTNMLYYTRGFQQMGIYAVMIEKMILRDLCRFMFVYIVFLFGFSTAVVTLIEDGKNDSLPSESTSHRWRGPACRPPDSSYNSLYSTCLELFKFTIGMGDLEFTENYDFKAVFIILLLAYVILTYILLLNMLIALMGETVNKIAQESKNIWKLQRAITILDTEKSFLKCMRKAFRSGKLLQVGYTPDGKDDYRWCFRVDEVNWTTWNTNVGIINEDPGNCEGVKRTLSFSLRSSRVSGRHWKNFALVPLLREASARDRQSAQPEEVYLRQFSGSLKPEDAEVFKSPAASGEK

COc1cc(CNC(=O)CCCC/C=C/C(C)C)ccc1O [pure CAP, capsaicin]
time of peak CAP concentration (cumulative release) ([1]; FIG. 3, 15 to 3000 minutes): around 500 minutes
course of CAP concentration after the peak ([1]; FIG. 3, up to 3000 minutes): steadily decrease
time at which rise in Ca2+ concentration begins [2]: approximately 175 seconds
time of peak rise in Ca2+ concentration [2]: about 300 seconds
effect on high fat diet-induced weight gain in the absence of the TRPV1 protein in adipose tissue ([3]; absence of TRPV1 protein in adipose tissue): does not inhibit high fat diet-induced weight gain
effect on high fat diet-induced weight gain ([3]; mouse model systems): inhibit high fat diet-induced weight gain
